Experimental data published in patent US20200316090A1, “TARGETED THERAPEUTICS” (MADRIGAL PHARMACEUTICALS, INC., priority 2012, published 2020).
Where two headings read alike, the source gives them in different places. One block for each compound: values may come before it.

Columns and labels:
[1] = PAMPA
[2] = Artificial membrane permeability assay (PAMPA)
[3] = Mouse plasma stability (Examples 16-18); type: in vitro ADME; details: for Mouse (5 μM) % Remaining 1 h (37° C.) §: data from single parent peak; for Mouse (5 μM) % Remaining 1 h (37° C.) * / Mouse (10 μM) % Remaining 1 h (37° C.) *: sum of both peaks of parent chromatogram
[4] = Tissue distribution of SDC-TRAP and degradation products in tumor-bearing mice (plasma, tumor, heart); type: in vivo, Female SCID Mouse (H1975)
[5] = Permeability (10^−6 cm/s), 5 h incubation, peak area used in place of concentration, first table
[6] = Permeability (cm/s), 5 h incubation, peak area used in place of concentration, first table

SMILES: CC(C)c1cc(-c2nnc(O)n2-c2ccc3c(ccn3CCNC(=O)CCCC[C@@H]3SC[C@@H]4NC(=O)N[C@@H]43)c2)c(O)cc1O [SDC-TRAP-0233]
Mass Retention (%) [1]: 10.9%
Permeability [1]: 2.1e-08 cm/s
Permeability (10^−6 cm/s) [1]: 0.021 10^−6 cm/s

SMILES: CCc1c2c(nc3ccc(OC(=O)N(C)CCOCCn4ccc5cc(-n6c(O)nnc6-c6cc(C(C)C)c(O)cc6O)ccc54)cc13)-c1cc3c(c(=O)n1C2)COC(=O)C3(O)CC (stereo not shown) [SDC-TRAP-0029, 4,11-diethyl-4-hydroxy-3,14-dioxo-3,4,12,14-tetrahydro-1H-pyrano[3′,4′:6,7]indolizino[1,2-b]quinolin-9-yl(2-(2-(5-(3-(2,4-dihydroxy-5-isopropylphenyl)-5-hydroxy-4H-1,2,4-triazol-4-yl)-1H-indol-1-yl)ethoxy)ethyl)(methyl)carbamate]
Papp at 5 h [2]: 0.00646 ×10⁻⁶ cm/s
Mass Retention (%) ([2]; same protocol, second table): 84.0%
Permeability (10^−6 cm/s) ([2]; same protocol, second table): 0.00646 10^−6 cm/s
Mouse (5 μM) % Remaining 1 h (37° C.) § ([3]; 1 h): 43%
Mouse (5 μM) % Remaining 1 h (37° C.) * ([3]; 1 h): 46%
Mouse (5 μM) % Remaining 19 h (37° C.) [3]: 29%
Mouse (10 μM) % Remaining 1 h (37° C.) * ([3]; 1 h): 47%

% Remaining (l h) ([3]; mouse, plasma, 1 h, 10 µM): 96.5%
SMILES: CC(C)c1cc(-c2nnc(O)n2-c2ccc(CN3CCN(C(=O)c4ccc(CCc5c[nH]c6nc(N)[nH]c(=O)c56)cc4)CC3)cc2)c(O)cc1O [SDC-TRAP-0068, 2-amino-5-(4-(4-(4-(3-(2,4-dihydroxy-5-isopropylphenyl)-5-hydroxy-4H-1,2,4-triazol-4-yl)benzyl)piperazine-1-carbonyl)phenethyl)-3H-pyrrolo[2,3-d]pyrimidin-4(7H)-one]

SMILES: CCc1c2c(nc3ccc(OC(=O)N(C)CCCCN4CCN(Cc5ccc(-n6c(O)nnc6-c6cc(C(C)C)c(O)cc6O)cc5)CC4)cc13)-c1cc3c(c(=O)n1C2)COC(=O)C3(O)CC (stereo not shown) [SDC-TRAP-0044, 4,11-diethyl-4-hydroxy-3,14-dioxo-3,4,12,14-tetrahydro-1H-pyrano[3 ‘,4’:6,7]indolizino[1,2-b]quinolin-9-yl (4-(4-(4-(3-(2,4-dihydroxy-5-isopropylphenyl)-5-hydroxy-4H-1,2,4-triazol-4-yl)benzyl)piperazin-1-yl)butyl)(methyl)carbamate]
Mouse (5 μM) % Remaining 1 h (37° C.) * ([3]; 1 h): 50%
Mouse (5 μM) % Remaining 19 h (37° C.) [3]: 41%
Mouse (10 μM) % Remaining 1 h (37° C.) * ([3]; 1 h): 61%

Mass Retention (%) ([2]; 5 h incubation, first table): 26.0%
Papp at 5 h [2, 5]: 0.062 ×10⁻⁶ cm/s
Papp at 5 h [2, 6]: 0.062 ×10⁻⁶ cm/s
Kp at 1 h ([4]; female, SCID, mouse, in vivo): 11.9
Kp at […] ([4]; female, SCID, mouse, in vivo): 0.449
SMILES: Nc1cccc2c1CN(C1CCC(=O)NC1=O)C2=O (stereo not shown) [Lenalidomide, lenalidomide, reference compound]

SMILES: CCc1c2c(nc3ccc(OC(=O)N4CCN(Cc5ccc(-n6c(O)nnc6-c6cc(C(C)C)c(O)cc6O)cc5)CC4)cc13)-c1cc3c(c(=O)n1C2)COC(=O)C3(O)CC (stereo not shown) [SDC-TRAP-0046, 4,11-diethyl-4-hydroxy-3,14-dioxo-3,4,12,14-tetrahydro-1H-pyrano[3′,4′:6,7]indolizino[1,2-b]quinolin-9-yl 4-(4-(3-(2,4-dihydroxy-5-isopropylphenyl)-5-hydroxy-4H-1,2,4-triazol-4-yl)benzyl)piperazine-1-carboxylate]
Papp at 5 h [2]: 0.0122 ×10⁻⁶ cm/s
Mass Retention (%) ([2]; same protocol, second table): 88.1%
Permeability (10^−6 cm/s) ([2]; same protocol, second table): 0.0122 10^−6 cm/s
Mouse (5 μM) % Remaining 1 h (37° C.) § ([3]; 1 h): 62%
Mouse (5 μM) % Remaining 1 h (37° C.) * ([3]; 1 h): 65%
Mouse (5 μM) % Remaining 19 h (37° C.) [3]: 37%
Mouse (10 μM) % Remaining 1 h (37° C.) * ([3]; 1 h): 57%
concentration at 12 h ([4]; female, SCID, mouse, in vivo, tissue distribution of SDC-TRAP-0046, 12 h, read-out: Plasma Conc.): 54.2 nM
Kp at 12 h ([4]; female, SCID, mouse, in vivo, tissue distribution of SDC-TRAP-0046, 12 h, read-out: Tumor/Plasma Ratio): 40.3

SMILES: CC(C)c1cc(-c2nnc(O)n2-c2ccc3c(ccn3CCNC(=O)CCCCCNC(=O)CCCC[C@H]3SC[C@H]4NC(=O)N[C@H]43)c2)c(O)cc1O [SDC-TRAP-0234]
Mass Retention (%) [1]: 9.56%
Permeability [1]: 1.23e-08 cm/s
Permeability (10^−6 cm/s) [1]: 0.0123 10^−6 cm/s

SMILES: CCNC(=O)c1nnc(-c2cc(C(C)C)c(O)cc2O)n1-c1ccc(Oc2ccc(C(=O)N3CCC(C(=O)OC4(CC)C(=O)OCc5c4cc4n(c5=O)Cc5c-4nc4ccc(O)cc4c5CC)CC3)cc2)cc1 (stereo not shown) [SDC-TRAP-0154, 4,11-Diethyl-9-hydroxy-3,14-dioxo-3,4,12,14-tetrahydro-1H-pyrano[3′,4′:6,7]indolizino[1,2-b]quinolin-4-yl 1-(4-(4-(3-(2,4-dihydroxy-5-isopropylphenyl)-5-(ethylcarbamoyl)-4H-1,2,4-triazol-4-yl)phenoxy)benzoyl)piperidine-4-carboxylate]
Mass Retention (%) ([2]; same protocol, second table): 10.3%
Kp ([4]; female, SCID, mouse, in vivo, tissue distribution of SDC-TRAP-0154, 6 h, read-out: Tumor/Plasma Ratio): 0.44
Kp ([4]; female, SCID, mouse, in vivo, tissue distribution of SDC-TRAP-0154, 24 h, read-out: Tumor/Plasma Ratio): 2.68
Kp ([4]; female, SCID, mouse, in vivo, tissue distribution of SDC-TRAP-0154, 48 h, read-out: Tumor/Plasma Ratio): 26.8
Plasma Conc. ([4]; tissue distribution of SDC-TRAP-0154, 1 h): 215 µM
Tumor Conc. ([4]; tissue distribution of SDC-TRAP-0154, 24 h): 0.115 nmol/g of tissue
Tumor Conc. ([4]; tissue distribution of SDC-TRAP-0154, 48 h): 0.0921 nmol/g of tissue

Mass Retention (%) ([2]; 5 h incubation, first table): 14.7%
Papp at 5 h [2, 5]: 0.0268 ×10⁻⁶ cm/s
Papp at 5 h [2, 6]: 0.0268 ×10⁻⁶ cm/s
SMILES: CC(C)c1cc(-c2nnc(O)n2-c2ccc3c(ccn3CCN(C)C(=O)CCCC(=O)Nc3cccc4c3CN(C3CCC(=O)NC3=O)C4=O)c2)c(O)cc1O (stereo not shown) [SDC-TRAP-0018, N1-(2-(5-(3-(2,4-dihydroxy-5-isopropylphenyl)-5-hydroxy-4H-1,2,4-triazol-4-yl)-1H-indol-1-yl)ethyl)-N5-(2-(2,6-dioxopiperidin-3-yl)-1-oxoisoindolin-4-yl)-N1-methylglutaramide]

SMILES: CCc1c2c(nc3ccc(OC(=O)N4CCN(c5ccc(-n6c(O)nnc6-c6cc(C(C)C)c(O)cc6O)cc5)CC4)cc13)-c1cc3c(c(=O)n1C2)COC(=O)C3(O)CC (stereo not shown) [SDC-TRAP-0045, 4,11-diethyl-4-hydroxy-3,14-dioxo-3,4,12,14-tetrahydro-1H-pyrano[3′,4′:6,7]indolizino[1,2-b]quinolin-9-yl 4-(4-(3-(2,4-dihydroxy-5-isopropylphenyl)-5-hydroxy-4H-1,2,4-triazol-4-yl)phenyl)piperazine-1-carboxylate]
Mouse (5 μM) % Remaining 1 h (37° C.) § ([3]; 1 h): 72%
Mouse (5 μM) % Remaining 1 h (37° C.) * ([3]; 1 h): 77%
Mouse (5 μM) % Remaining 19 h (37° C.) [3]: 50%
Mouse (10 μM) % Remaining 1 h (37° C.) * ([3]; 1 h): 45%

SMILES: CCNC(=O)c1nnc(-c2cc(C(C)C)c(O)cc2O)n1-c1ccc2c(c1)CN(Cc1cc(OC)c(OC(=O)Nc3cccc4c3CN(C3CCC(=O)NC3=O)C4=O)c(OC)c1)C2 (stereo not shown) [SDC-TRAP-0196, 4-((5-(3-(2,4-dihydroxy-5-isopropylphenyl)-5-(ethylcarbamoyl)-4H-1,2,4-triazol-4-yl)isoindolin-2-yl)methyl)-2,6-dimethoxyphenyl (2-(2,6-dioxopiperidin-3-yl)-1-oxoisoindolin-4-yl)carbamate]
Mass Retention (%) ([2]; 5 h incubation, first table): 22.3%

SMILES: CCc1c2c(nc3ccc(O)cc13)-c1cc3c(c(=O)n1C2)COC(=O)C3(CC)OC(=O)N(C)CCOCCn1ccc2cc(-n3c(O)nnc3-c3cc(C(C)C)c(O)cc3O)ccc21 (stereo not shown) [SDC-TRAP-0037, 4,11-diethyl-9-hydroxy-3,14-dioxo-3,4,12,14-tetrahydro-1H-pyrano[3′,4′:6,7]indolizino[1,2-b]quinolin-4-yl (2-(2-(5-(3-(2,4-dihydroxy-5-isopropylphenyl)-5-hydroxy-4H-1,2,4-triazol-4-yl)-1H-indol-1-yl)ethoxy)ethyl) (methyl)carbamate]
Mouse (5 μM) % Remaining 1 h (37° C.) * ([3]; 1 h): 67%
Mouse (5 μM) % Remaining 19 h (37° C.) [3]: 6%
Mouse (10 μM) % Remaining 1 h (37° C.) * ([3]; 1 h): 95%
